Measurements reported in US6962907B2, “Neurologically-active compounds” (The University of Sydney, priority 2001, dated 2005).
“Also recorded” adds a separate entry of the source. Read-outs that look alike come from different tables or passages of the source. Each block holds one molecule with its values, some of them ahead of it.

Columns and labels:
[1] = biological target: GABAC (ρ1) receptor (Homo sapiens, UniProt P24046); experiment: Two-electrode voltage clamp at GABAC (ρ1) receptors expressed in Xenopus oocytes; conditions: for current response to GABA alone / current response to compound in the presence of GABA / response to compound alone: FIG. 11(a); for current response to compound in the presence of GABA: 100 μM compound + 1 μM GABA; for response to compound alone: 100 μM compound alone; for Hill coefficient (nH) for GABA in the presence of the antagonist / I/Imax, maximal GABA response maintained in the presence of the antagonist: (±)-cis 40 μM or (±)-trans 30 μM; for I/Imax, maximal GABA response maintained in the presence of the antagonist / type of antagonism: FIG. 12; for type of antagonism: parallel shift of the GABA dose-response curves; for inhibition at 100 µM: read-out: inhibition of the GABA response
Protocol: (§1) For example, ρ1 GABAC receptor subunit subcloned in ρ1 cDNA 1.1 and is linearised using the restriction enzyme Xbal . Following this, the mRNA is then prepared from the linearised ρ1 subunit using T7 polymerase. This genetic material is then injected into the Xenopus laevis oocytes and incubated for 2 to 9 days, to allow for the process of translation to occur. After this process the Xenopus laevis oocytes show expression of the receptor and ion channel assembly on the cell surface.
(§2) Female Xenopus laevis frogs were anaesthetised with tricaine (850 mg/500 mL) and a lobe of their ovaries surgically removed. […] Stage V-VI oocytes were collected and stored in Frog Ringer (ND96) wash solution (96 mM NaCI, 2 mM KCI, 1 mM MgCl2.6H20, 1.8 mM CaCl2.2H2O, 5 mM HEPES (hemi-Na salt), pH 7.5) supplemented with 2.5 mM sodium pyruvate, 0.5 mM theophylline, and 50 μg/mL gentamicin.
(§3) Micropipettes were prepared by the microprocessor-controlled vertical pipette puller (World Precision Instruments) and bevelled to a tip diameter of 10-20 μm. The micropipettes were filled with mineral oil to ensure the mRNA solution would be drawn up into the micropipette under negative pressure. A Nanoject injector (World Precision Instruments) was used to deliver GABAA, GABAB or GABAC mRNA (50 nL) into the cytoplasm of the Xenopus oocytes. After injection with the appropriate mRNA, the oocytes were placed in a storage solution of ND96 wash solution supplemented with 2.5 mM sodium pyruvate, 0.5 mM theophylline and gentamicin (50 μg/mL) and stored on a slow speed rotator in an 18° C. controlled temperature incubator (Contherm, Petone, NZ). The storage solution was changed daily (or twice daily) and dead or unhealthy oocytes were removed to prolong the health of the remaining cells.
(§4) Prior to recording, 100 mM stock solutions of (±)-cis- and (±)-trans-3-ACPBPA were prepared using autoclaved MilliQ water and stored at −20° C. […] At the time the experiments were to be recorded, the stock solutions were diluted with ND96 wash solution for testing on GABAA and GABAC receptors or 45 mM K^+ solution (45 mM NaCI, 45 mM KCI, 1 mM MgCl2.6H2O, 1.8 mM CaCl2.2H2O, 5 mM HEPES (hemi-Na salt), pH 7.5 at 25° C.) for testing on GABAB receptors.
(§5) After 2 to 9 days of incubation, receptor activity using two-electrode voltage clamp recordings were acquired by means of a Geneclamp 500 amplifier (Axon Instruments Inc., Foster City, Calif., USA), a MacLab 2e recorder (AD Instruments, Sydney, Australia) and Chart™ v.3.6.3 for Macintosh (AD Instruments) to digitise the current and voltage signals.
(§6) The recording microelectrodes were prepared from borosilicate glass capillaries (1.2 mm i.d.×0.94 mm o.d.; Clark Electromedical Instruments, Pangbourne, UK) using a micropipette puller (World Precision Instruments). The microelectrodes (tip resistances 0.5-1.5 MΩ) were filled with 3 M potassium chloride and a microscope was used to direct the insertion of these microelectrodes into the oocyte positioned in the cell bath. The membrane potential of the oocyte was then voltage-clamped at −60 mV.
(§7) Oocytes with an adequate level of receptor expression (with maximal currents (I)≧50 nA) were used for subsequent recording. […] Oocytes were washed for 3-4 minutes between applications of drug doses to ensure for receptor recovery.

[2] = biological target: GABAC (ρ2) receptor (Homo sapiens, UniProt P28476); experiment: Two-electrode voltage clamp at GABAC (ρ2) receptors expressed in Xenopus oocytes; conditions: for current response to GABA alone / current response to compound in the presence of GABA / response to compound alone: FIG. 11(b); for current response to compound in the presence of GABA: 100 μM compound + 1 μM GABA; for response to compound alone: 100 μM compound alone; for inhibition at 100 µM: read-out: inhibition of the GABA response
Protocol: as §1, §2, §3, §4, §5, §6, §7

[3] = biological target: T1, GABAC (ρ3) receptor (Rattus norvegicus, UniProt P50573); experiment: Two-electrode voltage clamp at GABAC (ρ3) receptors expressed in Xenopus oocytes; conditions: for current response to compound in the presence of GABA: 100 μM compound + 10 μM GABA; for response to compound alone: 100 μM compound alone; for inhibition at 100 µM: read-out: inhibition of the GABA response
T1 sequence (P50573 16-464): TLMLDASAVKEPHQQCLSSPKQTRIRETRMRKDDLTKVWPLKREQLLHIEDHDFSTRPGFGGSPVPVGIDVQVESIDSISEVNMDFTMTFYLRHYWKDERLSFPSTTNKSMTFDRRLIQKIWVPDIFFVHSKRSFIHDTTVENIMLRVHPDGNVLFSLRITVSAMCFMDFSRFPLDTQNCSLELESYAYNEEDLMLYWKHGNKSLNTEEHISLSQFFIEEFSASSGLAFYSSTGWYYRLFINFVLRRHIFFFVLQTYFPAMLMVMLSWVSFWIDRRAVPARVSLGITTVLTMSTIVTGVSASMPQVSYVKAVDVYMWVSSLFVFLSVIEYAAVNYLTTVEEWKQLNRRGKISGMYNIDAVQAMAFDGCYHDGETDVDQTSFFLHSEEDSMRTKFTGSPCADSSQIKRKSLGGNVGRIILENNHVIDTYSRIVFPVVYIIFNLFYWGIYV
Protocol: as §1, §2, §3, §4, §5, §6, §7

[4] = biological target: GABAA (α2β2γ2s) receptor (Homo sapiens, UniProt P47869+P47870); experiment: Two-electrode voltage clamp at GABAA (α2β2γ2s) receptors expressed in Xenopus oocytes; conditions: for current response to GABA alone: oocyte clamped at −60 mV; for current response to GABA alone / current response to compound in the presence of GABA / response to compound alone: FIG. 9; for effect as agonist or antagonist: 1 mM compound; for current response to compound in the presence of GABA: 1 mM compound + 3 μM GABA; for response to compound alone: 1 mM compound alone
Protocol: as §1, §2, §3, §4, §5, §6, §7

[5] = biological target: T2, GABAB (1b,2) receptor (Homo sapiens, UniProt Q9UBS5); experiment: Two-electrode voltage clamp at GABAB (1b,2) receptors co-expressed with GIRK1 and GIRK4 in Xenopus oocytes; assay type: cell-based; conditions: for effect as agonist or antagonist: 300 μM compound; for current response to compound in the presence of GABA: 300 μM compound + 1 μM GABA; for current response to compound in the presence of GABA / response to compound alone: FIG. 10(a); for response to compound alone: 300 μM compound alone
T2 construct: expressed in transfected cells; host or cells: Xenopus laevis oocytes injected with mRNA

[6] = biological target: T3, GABAB (1a,2) receptor (Homo sapiens, UniProt Q9UBS5); experiment: Two-electrode voltage clamp at GABAB (1a,2) receptors co-expressed with GIRK1 and GIRK4 in Xenopus oocytes; assay type: cell-based; conditions: for effect as agonist or antagonist: 300 μM compound; for current response to compound in the presence of GABA: 300 μM compound + 3 μM GABA; for current response to compound in the presence of GABA / response to compound alone: FIG. 10(b); for response to compound alone: 300 μM compound alone
T3 construct: expressed in transfected cells; host or cells: Xenopus laevis oocytes injected with mRNA

[7] = biological target: GABAB receptor (Homo sapiens, UniProt Q9UBS5); experiment: Two-electrode voltage clamp at GABAB receptors (subtype not stated) expressed in Xenopus oocytes; conditions: for effect as agonists or antagonists: 300 μM compound; for inhibition at 1000 µM: read-out: inhibition of 1 μM GABA (weak antagonist effect); for EC50: read-out: EC50 as GABAB receptor agonist
[8] = biological target: GABAC receptors; conditions: Woodward et al, 1993; read-out: KB as antagonist at GABAC receptors; cited from earlier work
[9] = biological target: T4, GABAC receptor (Homo sapiens, UniProt P24046); conditions: cited from earlier work
[10] = system: GABAA receptors; conditions: TPMPA 300 μM; cited from earlier work
[11] = system: GABAB receptor; conditions: dose of 500 μM; cited from earlier work
[12] = system: GABAA receptors; experiment: Activity of ACPMPA isomers at GABAA receptors (subtype not stated), as for ACPBPA; assay type: cell-based; conditions: for reduction of the current produced by GABA (10 μM): 300 μM compound
[13] = biological target: T4, GABAC receptor; experiment: Activity of ACPMPA isomers as GABAC receptor antagonists (subtype not stated), as for ACPBPA; assay type: cell-based; parameters: expressed in transfected cells; conditions: for Kb: read-out: KB as GABAC receptor antagonist

Chain of GABAA (α2β2γ2s) receptor (P47869 29-451): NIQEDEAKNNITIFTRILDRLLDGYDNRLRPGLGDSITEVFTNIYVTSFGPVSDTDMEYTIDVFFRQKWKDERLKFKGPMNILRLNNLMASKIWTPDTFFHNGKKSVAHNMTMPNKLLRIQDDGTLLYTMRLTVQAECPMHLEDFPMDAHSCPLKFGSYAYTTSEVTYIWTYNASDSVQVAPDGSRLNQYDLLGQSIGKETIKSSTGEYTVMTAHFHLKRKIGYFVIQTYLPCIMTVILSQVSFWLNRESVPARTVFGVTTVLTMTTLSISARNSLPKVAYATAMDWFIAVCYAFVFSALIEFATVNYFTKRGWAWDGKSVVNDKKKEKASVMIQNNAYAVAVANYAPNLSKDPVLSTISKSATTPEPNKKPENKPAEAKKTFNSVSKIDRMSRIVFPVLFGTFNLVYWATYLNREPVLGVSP
Chain of GABAA (α2β2γ2s) receptor (P47870 25-512 limits assumed): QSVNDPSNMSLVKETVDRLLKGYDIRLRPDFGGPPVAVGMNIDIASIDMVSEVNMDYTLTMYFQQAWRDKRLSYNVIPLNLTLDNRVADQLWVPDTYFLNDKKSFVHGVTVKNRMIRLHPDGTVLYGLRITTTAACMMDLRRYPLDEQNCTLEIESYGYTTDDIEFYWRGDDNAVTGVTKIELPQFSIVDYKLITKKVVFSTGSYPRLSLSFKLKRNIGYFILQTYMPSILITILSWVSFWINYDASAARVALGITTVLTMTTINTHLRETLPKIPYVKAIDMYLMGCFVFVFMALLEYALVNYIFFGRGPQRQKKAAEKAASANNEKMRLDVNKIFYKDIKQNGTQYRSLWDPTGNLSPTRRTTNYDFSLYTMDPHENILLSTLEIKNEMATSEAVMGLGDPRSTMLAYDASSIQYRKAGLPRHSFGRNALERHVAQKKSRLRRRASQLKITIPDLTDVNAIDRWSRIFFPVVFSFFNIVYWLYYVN
Chain of GABAA (α2β2γ2s) receptor (P18507 40-467 isoform P18507-1 partner limits assumed): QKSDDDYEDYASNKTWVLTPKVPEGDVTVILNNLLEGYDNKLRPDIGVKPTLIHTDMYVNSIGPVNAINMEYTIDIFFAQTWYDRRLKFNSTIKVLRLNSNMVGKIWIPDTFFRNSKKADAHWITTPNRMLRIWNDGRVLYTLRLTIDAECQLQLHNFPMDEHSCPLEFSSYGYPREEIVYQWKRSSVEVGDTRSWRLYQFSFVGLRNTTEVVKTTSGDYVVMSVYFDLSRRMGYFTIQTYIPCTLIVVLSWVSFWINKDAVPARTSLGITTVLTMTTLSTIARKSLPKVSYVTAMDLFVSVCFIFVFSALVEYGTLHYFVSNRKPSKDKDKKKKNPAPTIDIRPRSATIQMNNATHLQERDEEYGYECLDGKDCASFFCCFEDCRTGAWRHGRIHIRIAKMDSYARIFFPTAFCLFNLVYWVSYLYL
Chain of GABAC (ρ2) receptor (P28476 21-465): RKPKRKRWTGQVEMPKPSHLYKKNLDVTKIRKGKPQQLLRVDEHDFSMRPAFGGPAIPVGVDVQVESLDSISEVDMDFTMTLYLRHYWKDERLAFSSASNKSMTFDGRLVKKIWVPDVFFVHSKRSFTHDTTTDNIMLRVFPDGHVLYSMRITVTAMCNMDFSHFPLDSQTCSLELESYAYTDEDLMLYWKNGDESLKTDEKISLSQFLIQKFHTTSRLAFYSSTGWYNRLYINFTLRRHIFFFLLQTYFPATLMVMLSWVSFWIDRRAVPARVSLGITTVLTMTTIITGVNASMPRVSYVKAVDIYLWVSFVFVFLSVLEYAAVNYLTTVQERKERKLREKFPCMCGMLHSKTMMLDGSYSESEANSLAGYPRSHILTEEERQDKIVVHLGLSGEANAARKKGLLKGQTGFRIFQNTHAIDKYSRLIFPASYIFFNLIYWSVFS
Chain of GABAC (ρ1) receptor (P24046 22-479): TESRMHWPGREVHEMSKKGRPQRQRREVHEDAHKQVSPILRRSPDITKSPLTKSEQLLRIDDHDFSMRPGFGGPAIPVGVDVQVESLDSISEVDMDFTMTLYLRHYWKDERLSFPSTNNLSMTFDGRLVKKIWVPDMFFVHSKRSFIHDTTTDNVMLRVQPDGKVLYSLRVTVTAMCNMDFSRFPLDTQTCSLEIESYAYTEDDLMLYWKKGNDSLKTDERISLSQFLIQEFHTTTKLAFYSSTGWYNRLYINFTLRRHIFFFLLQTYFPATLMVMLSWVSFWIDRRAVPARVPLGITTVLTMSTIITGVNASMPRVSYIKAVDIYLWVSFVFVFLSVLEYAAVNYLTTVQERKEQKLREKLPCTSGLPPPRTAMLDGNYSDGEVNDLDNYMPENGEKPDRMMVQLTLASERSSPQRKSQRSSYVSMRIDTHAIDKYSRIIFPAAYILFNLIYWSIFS
T4 sequence (P24046 22-479): as above
T2 sequence (Q9UBS5 1-844 isoform Q9UBS5-2): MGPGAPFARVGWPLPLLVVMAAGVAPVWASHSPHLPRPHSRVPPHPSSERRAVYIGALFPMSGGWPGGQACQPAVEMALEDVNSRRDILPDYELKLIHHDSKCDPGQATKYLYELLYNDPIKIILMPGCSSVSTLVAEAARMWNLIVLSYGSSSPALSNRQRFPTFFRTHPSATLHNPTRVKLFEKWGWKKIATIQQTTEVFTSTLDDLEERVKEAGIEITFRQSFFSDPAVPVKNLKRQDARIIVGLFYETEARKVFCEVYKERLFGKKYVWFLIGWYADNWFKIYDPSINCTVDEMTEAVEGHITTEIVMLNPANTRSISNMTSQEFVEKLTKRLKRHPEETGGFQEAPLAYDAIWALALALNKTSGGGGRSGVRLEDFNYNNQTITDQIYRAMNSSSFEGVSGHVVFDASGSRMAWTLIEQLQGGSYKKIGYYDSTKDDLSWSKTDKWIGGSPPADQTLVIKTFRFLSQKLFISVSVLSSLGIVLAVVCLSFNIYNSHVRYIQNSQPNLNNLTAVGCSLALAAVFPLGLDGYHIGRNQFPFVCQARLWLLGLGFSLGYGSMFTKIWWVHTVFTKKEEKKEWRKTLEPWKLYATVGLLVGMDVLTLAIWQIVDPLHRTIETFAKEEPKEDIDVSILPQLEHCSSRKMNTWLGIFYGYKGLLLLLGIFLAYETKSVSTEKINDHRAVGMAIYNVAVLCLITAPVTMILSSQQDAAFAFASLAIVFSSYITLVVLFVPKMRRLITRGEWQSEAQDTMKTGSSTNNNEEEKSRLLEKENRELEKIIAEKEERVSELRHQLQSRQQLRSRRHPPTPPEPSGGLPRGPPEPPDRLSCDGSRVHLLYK
T2 sequence (O75899 42-941 partner): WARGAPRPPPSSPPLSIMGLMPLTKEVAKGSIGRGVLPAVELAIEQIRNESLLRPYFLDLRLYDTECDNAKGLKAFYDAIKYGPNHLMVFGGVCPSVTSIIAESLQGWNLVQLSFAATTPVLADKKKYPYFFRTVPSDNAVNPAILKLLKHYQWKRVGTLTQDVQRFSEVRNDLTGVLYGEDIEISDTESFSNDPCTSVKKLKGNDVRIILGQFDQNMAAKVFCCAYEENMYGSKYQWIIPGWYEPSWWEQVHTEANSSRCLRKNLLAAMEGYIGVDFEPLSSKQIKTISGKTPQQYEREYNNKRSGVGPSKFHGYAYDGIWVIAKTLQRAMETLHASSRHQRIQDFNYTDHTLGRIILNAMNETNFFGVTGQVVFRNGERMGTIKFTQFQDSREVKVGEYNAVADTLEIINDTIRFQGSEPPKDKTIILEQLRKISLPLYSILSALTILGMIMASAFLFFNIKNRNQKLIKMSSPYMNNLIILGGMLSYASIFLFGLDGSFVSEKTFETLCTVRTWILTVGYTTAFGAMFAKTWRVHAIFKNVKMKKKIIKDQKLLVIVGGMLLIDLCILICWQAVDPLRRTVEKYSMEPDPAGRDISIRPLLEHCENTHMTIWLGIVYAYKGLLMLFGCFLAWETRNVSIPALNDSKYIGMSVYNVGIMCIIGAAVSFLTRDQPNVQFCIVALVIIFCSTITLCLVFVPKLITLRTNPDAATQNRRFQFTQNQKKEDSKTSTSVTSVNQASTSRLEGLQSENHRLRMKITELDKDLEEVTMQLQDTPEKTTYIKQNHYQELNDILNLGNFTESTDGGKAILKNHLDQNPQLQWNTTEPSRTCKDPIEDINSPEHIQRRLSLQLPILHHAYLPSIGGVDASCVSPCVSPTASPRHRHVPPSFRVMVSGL
Chain of GABAB receptor (Homo sapiens, UniProt Q9UBS5) (Q9UBS5 20-961): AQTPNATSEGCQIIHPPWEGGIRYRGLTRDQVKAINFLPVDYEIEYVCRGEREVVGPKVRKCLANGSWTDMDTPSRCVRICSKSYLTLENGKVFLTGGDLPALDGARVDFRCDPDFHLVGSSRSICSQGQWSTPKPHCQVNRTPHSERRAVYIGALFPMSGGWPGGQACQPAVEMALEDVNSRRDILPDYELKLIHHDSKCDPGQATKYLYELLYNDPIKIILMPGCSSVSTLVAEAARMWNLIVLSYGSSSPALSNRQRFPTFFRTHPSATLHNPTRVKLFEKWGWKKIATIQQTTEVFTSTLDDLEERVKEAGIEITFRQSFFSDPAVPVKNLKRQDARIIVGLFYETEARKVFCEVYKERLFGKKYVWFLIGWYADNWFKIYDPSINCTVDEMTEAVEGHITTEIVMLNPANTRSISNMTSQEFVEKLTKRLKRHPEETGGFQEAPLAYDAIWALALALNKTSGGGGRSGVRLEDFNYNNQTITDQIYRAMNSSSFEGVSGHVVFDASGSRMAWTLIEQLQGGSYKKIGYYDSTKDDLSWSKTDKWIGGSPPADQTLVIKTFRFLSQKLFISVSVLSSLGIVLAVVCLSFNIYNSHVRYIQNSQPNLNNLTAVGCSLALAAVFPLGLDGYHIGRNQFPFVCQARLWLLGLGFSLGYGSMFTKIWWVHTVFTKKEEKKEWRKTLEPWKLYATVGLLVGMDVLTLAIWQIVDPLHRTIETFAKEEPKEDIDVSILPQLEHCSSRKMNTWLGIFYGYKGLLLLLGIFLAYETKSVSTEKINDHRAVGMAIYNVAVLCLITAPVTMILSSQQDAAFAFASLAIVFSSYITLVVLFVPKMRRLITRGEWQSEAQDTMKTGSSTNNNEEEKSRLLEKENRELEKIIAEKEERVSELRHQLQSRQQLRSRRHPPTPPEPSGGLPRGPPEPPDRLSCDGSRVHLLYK
Chain of GABAB receptor (Homo sapiens, UniProt Q9UBS5) (O75899 42-941 partner): as the sequence (O75899 42-941 partner) above

current response to GABA alone ([1]; GABA 1 μM): 105 nA | current response to GABA alone ([1]; GABA 10 μM): 142 nA | Hill coefficient (nH) for GABA alone ([1]; GABA dose-response curve): 1.9±0.3 | current response to GABA alone ([2]; GABA 1 μM): 23 nA | current response to GABA alone ([2]; GABA 100 μM): 35 nA | current response to GABA alone ([3]; GABA 10 μM, FIG. 11(c)): 880 nA | current response to GABA alone ([4]; GABA 3 μM): 65 nA | current response to GABA alone ([4]; GABA 300 μM): 1180 nA
Molecule: NCCCC(=O)O [GABA, γ-Aminobutyric acid, reference compound]

Molecule: CCCCP(=O)(O)[C@H]1CC[C@@H](N)C1 (racemic) [(±)-cis-3-ACPBPA, (±)-cis-(3-aminocyclopentanyl)butylphosphinic acid]
Kb [5]: > 300 µM | effect as agonist or antagonist [5]: did not act as an agonist or antagonist; also recorded: no apparent effect as an agonist or antagonist; also recorded: no effect as agonists or antagonists; also recorded: No effect | current response to compound in the presence of GABA [5]: 20 nA | response to compound alone [5]: no response was detected | Kb [6]: > 300 µM | effect as agonist or antagonist [6]: did not act as an agonist or antagonist; also recorded: no apparent effect as an agonist or antagonist; also recorded: no effect as agonists or antagonists; also recorded: No effect | current response to compound in the presence of GABA [6]: 405 nA | response to compound alone [6]: no response was detected | Kb [1]: 12.5 ± 1.2 µM | antagonist activity in words [1]: potent antagonists | current response to compound in the presence of GABA [1]: 2 nA | response to compound alone [1]: no recordable response | Hill coefficient (nH) for GABA in the presence of the antagonist [1]: 2.3±0.2 | I/Imax, maximal GABA response maintained in the presence of the antagonist [1]: 0.91±0.02 | type of antagonism [1]: competitive antagonists | potency relative to (±)-trans-3-ACPBPA ([1]; ratio of estimated KB values): 3.5 times | inhibition at 100 µM [1]: ~100% | antagonist activity in words [2]: potent antagonists | current response to compound in the presence of GABA [2]: 4 nA | response to compound alone [2]: no detectable response | inhibition at 100 µM [2]: ~100% | antagonist activity in words [3]: potent antagonists | current response to compound in the presence of GABA ([3]; FIG. 11(c)): 120 nA | response to compound alone ([3]; FIG. 11(c)): no measurable response | inhibition at 100 µM [3]: 85% | effect as agonist or antagonist [4]: did not act as an agonist or antagonist; also recorded: no effect as an agonist or antagonist; also recorded: no effect as an agonist or an antagonist; also recorded: No effect | current response to compound in the presence of GABA [4]: 65 nA | response to compound alone [4]: no response was detected | Kb [7]: > 1000 µM | effect as agonists or antagonists [7]: no effect as agonists or antagonists | inhibition at 1000 µM [7]: 10%

Molecule: NCCCP(=O)(O)O [3-APA, 3-aminopropylphosphonic acid]
Kb [8]: 1.8 µM

Molecule: CP(=O)(O)CCCN [CGP35024, (3-aminopropyl)methylphosphinc acid]
Kb [8]: 0.8 µM

Molecule: CCCCP(=O)(O)[C@@H]1CC[C@@H](N)C1 (racemic) [(±)-trans-3-ACPBPA, (±)-trans-(3-aminocyclopentanyl)butylphosphinic acid]
Kb [5]: > 300 µM | effect as agonist or antagonist [5]: did not act as an agonist or antagonist; also recorded: no apparent effect as an agonist or antagonist; also recorded: no effect as agonists or antagonists; also recorded: No effect | current response to compound in the presence of GABA [5]: 15 nA | response to compound alone [5]: no detectable response | Kb [6]: > 300 µM | effect as agonist or antagonist [6]: did not act as an agonist or antagonist; also recorded: no apparent effect as an agonist or antagonist; also recorded: no effect as agonists or antagonists; also recorded: No effect | current response to compound in the presence of GABA [6]: 407 nA | response to compound alone [6]: no detectable response | Kb [1]: 43.8 ± 5.1 µM | antagonist activity in words [1]: potent antagonists | current response to compound in the presence of GABA [1]: 34 nA | response to compound alone [1]: no detectable response | Hill coefficient (nH) for GABA in the presence of the antagonist [1]: 2.2±0.2 | I/Imax, maximal GABA response maintained in the presence of the antagonist [1]: 0.94±0.05 | type of antagonism [1]: competitive antagonists | inhibition at 100 µM [1]: 77% | antagonist activity in words [2]: potent antagonists | current response to compound in the presence of GABA [2]: 17 nA | response to compound alone [2]: no measurable response | inhibition at 100 µM [2]: 32% | antagonist activity in words [3]: potent antagonists | current response to compound in the presence of GABA ([3]; FIG. 11(c)): 455 nA | response to compound alone ([3]; FIG. 11(c)): no visible response | inhibition at 100 µM [3]: 45% | effect as agonist or antagonist [4]: did not act as an agonist or antagonist; also recorded: no effect as an agonist or antagonist; also recorded: no effect as an agonist or an antagonist; also recorded: No effect | current response to compound in the presence of GABA [4]: 60 nA | response to compound alone [4]: no detectable response | Kb [7]: > 1000 µM | effect as agonists or antagonists [7]: no effect as agonists or antagonists | inhibition at 1000 µM [7]: 10%

Molecule: CP(=O)(O)C1=CCNCC1 [TPMPA]
selectivity for GABAC than GABAA receptors [9]: 100 times | selectivity for GABAC than GABAB receptors [9]: 500 times | reduction of the current produced by GABA (10 μM) [10]: 67% | activation of the GABAB receptor [11]: about 30%

Molecule: (±)-trans-(3-Aminocyclopentanyl)methylphosphinic acid [(±)-trans-3-ACPMPA]
GABAA antagonist activity in words [12]: very weak activity as antagonists | reduction of the current produced by GABA (10 μM) [12]: 11% | selectivity for GABAC than GABAA receptors [13]: 45 times | selectivity for GABAC than GABAB receptors [13]: 24 times | times less potent than TPMPA [13]: 3 times | Kb [13]: 6.6 µM | GABAB agonist activity in words [7]: moderately potent GABAB receptor agonists | EC50 [7]: 160 µM

Molecule: (±)-cis-(3-Aminocyclopentanyl)methylphosphinic acid [(±)-cis-3-ACPMPA]
GABAA antagonist activity in words [12]: very weak activity as antagonists | reduction of the current produced by GABA (10 μM) [12]: 8% | selectivity for GABAC than GABAA receptors [13]: more than 100 times | selectivity for GABAC than GABAB receptors [13]: 50 times | times more potent than (±)-cis-3-ACPBPA at the GABAC receptors [13]: 12 times | times more potent than TPMPA [13]: 2 times | Kb [13]: 1 µM | GABAB agonist activity in words [7]: moderately potent GABAB receptor agonists | EC50 [7]: 50 µM

Molecule: NCCC[PH](=O)O [CGP27492, 3-aminopropylphosphinic acid]
Kb [8]: 0.8 µM
